For 41 compounds, GI50 and TGI results are on record in PubChem BioAssay (NCI).

SMILES strings stand for the structures.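 Grown in 96-well plates, cells were treated for 48 hours with each compound at five concentrations. Insufficient inhibition: endpoint recorded as highest concentration tested. Abbreviation: GI50, concentration required for 50% inhibition of growth. The concentration for full growth arrest is given as TGI.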

This assay has as its system MDA-MB-468 breast. Put plainly: NCI tumour cell line growth inhibition, 48 h.
In the case of `O=C1CC(N2C(=O)/C(=C/C(Cl)=C\c3ccc([N+](=O)[O-])cc3)SC2=S)C(=O)N1c1ccc(Cl)cc1` (configuration not stated), the GI50 was 1.33 µM and the TGI amounted to 3.1 µM.

Consider `CC(=O)O[C@H]1C(=O)[C@@]2(C)[C@H]([C@H](OC(=O)c3ccccc3)[C@]3(O)C[C@H](OC(=O)[C@H](OC(=O)CCC(=O)OC4CCC(S/N=C(N)/N=C(\N)N(C)C)CC4)[C@@H](NC(=O)c4ccccc4)c4ccccc4)C(C)=C1C3(C)C)[C@]1(OC(C)=O)CO[C@@H]1C[C@@H]2O` (some centres not stated), for which the GI50 is 0.00732 µM and the TGI stood at 0.0433 µM.

With `O=c1[nH]cnc2c1nnn2[C@@H]1O[C@H](CO)[C@@H](O)[C@H]1O`, the GI50 was 1.54 µM and the TGI stood at 24.5 µM.

Regarding `C=C1C(=O)O[C@H]2[C@H]1CC/C(Cn1cc(Cn3ccc4cc(Cl)ccc43)nn1)=C\CC[C@@]1(C)O[C@@H]21`, the GI50 is 0.908 µM and the TGI is 2.55 µM.

As to `Nc1c(C(=O)Nc2cccc3ccccc23)sc2nc3c(cc12)CCCCC3`, the GI50 is 0.231 µM and the TGI is over 50 µM.

For the compound `CNC(=O)c1ccc(Nc2nc(OC3CCCC3)c3c(-c4ccc5nc(C)oc5c4)c[nH]c3n2)c(OC)c1`, the GI50 is 0.424 µM and the TGI amounted to 27.6 µM.

On to `Cc1ccc(-c2nc3nc(-c4ccc(Cl)cc4)nc(N4CCCNCC4)c3o2)cc1`, for which the GI50 is 1.78 µM and the TGI is 3.42 µM.

As to `CCN(CC)CCCC(C)N/C(c1cccc(OC)c1)=c1\c(=O)[nH]n(-c2c3ccccc3nc3ccccc23)c(=O)\c1=C(/NC(C)CCCN(CC)CC)c1cccc(OC)c1` (configuration not stated), the GI50 was 1.18 µM and the TGI worked out at 3.09 µM.

For `CS(=O)(=O)Nc1cc(-c2ccc3ncc(C#N)c(NCc4ccccc4)c3c2)cnc1Cl`, the GI50 is 0.0819 µM and the TGI turned out to be 0.896 µM.

In the case of `O=C(/C=C/C12c3ccccc3C(c3ccccc31)C1C(=O)NC(=O)C12)c1ccco1` (configuration not stated), the GI50 is 2.2 µM and the TGI was 4.93 µM.

On to `Cc1cc(Nc2ncc(Cl)c(Nc3ccccc3S(=O)(=O)C(C)C)n2)c(OC(C)C)cc1C1CCNCC1`, for which the GI50 was 1.41 µM and the TGI worked out at 3.14 µM.

For `CC1=C([Se]CC(OC(=O)[C@@H](CSSC(C)(C)C)NC(=O)C(C)(C)C)C(=O)NCCCCCC(=O)OCc2ccccc2)C(=O)c2ccccc2C1=O` (some centres not stated), the GI50 is 2.19 µM and the TGI was found to be 4.35 µM.

With `C=C1C(=O)O[C@H]2[C@H]1CC/C(COC(=O)N[C@@H](Cc1c[nH]c3ccccc13)C(=O)OC)=C\CC[C@@]1(C)O[C@@H]21`, the GI50 is 1.23 µM and the TGI turned out to be 3.05 µM.

Take `C[C@]12CC[C@H](O)C[C@@H]1CC[C@@H]1[C@@H]2CC[C@@]2(C)[C@H]1CC[C@@H]2[C@](C)(O)CCc1ccc(F)cc1`: the GI50 was 2.44 µM and the TGI is 28.2 µM.

As to `N#C/C(=C\c1ccc(Cl)cc1)n1nnc2cc(F)c(F)cc21`, the GI50 is 1.47 µM and the TGI was 3.23 µM.

On to `Cc1cccc(Oc2ccc(Nc3ncnc4ccc(NC(=O)CN5CCN(C)CC5)cc34)cc2Cl)c1`, for which the GI50 is 0.448 µM and the TGI was 2.07 µM.

Consider `CN(C)c1ccc2[nH]c(O)c(C=Nc3ccc(S(N)(=O)=O)cc3)c2c1`, for which the GI50 was over 25 µM and the TGI was over 25 µM.

Regarding `Cc1cc(Nc2nc(N3CCOCC3)nc3ccccc23)n[nH]1`, the GI50 is 4.36 µM and the TGI was 38.2 µM.

Take `O=S(=O)(NCCNc1cc(-c2cn(-c3ccccc3)nc2-c2cccc(O)c2)ccn1)c1ccc(F)cc1`: the GI50 is 1.88 µM and the TGI worked out at 5.33 µM.

As to `O=C(Nc1nc(-c2ccc(Cl)cc2)cs1)c1ccc(O)c(O)c1`, the GI50 is 3.77 µM and the TGI turned out to be 25.5 µM.

As to `O=C(CSc1nc2sc3c(c2c(=O)n1-c1ccccc1)CCCCC3)N/N=C/c1ccc(F)cc1`, the GI50 is 2.35 µM and the TGI was 8.02 µM.

Regarding `O=[N+]([O-])c1ccccc1/C=C/C=C1c2ccccc2-c2ccccc21`, the GI50 was 54.6 µM and the TGI is over 100 µM.

For `O=C1Nc2cc(OC(F)(F)F)ccc2Oc2ccc(-c3ccnc(N4CC[C@H](O)C4)c3)cc21`, the GI50 is 0.0129 µM and the TGI turned out to be 0.368 µM.

Take `CCOC(=O)c1ccc2[nH]c(Cc3[nH]c4ccc(C(=O)OCC)cc4c3C)c(C)c2c1`: the GI50 is 5.59 µM and the TGI worked out at 28.9 µM.

As for `O=C(/C=C/c1ccc2c(c1)OCO2)c1ccccc1`, the GI50 is 13.9 µM and the TGI was found to be 28 µM.

Consider `Fc1ccc(Nc2ccc3cc(OCCCN4CCOCC4)ccc3n2)cc1F`, for which the GI50 was 3.35 µM and the TGI was 19.3 µM.

With `O=C(Nc1cccc(-c2nc3ccccc3[nH]2)c1)c1cccc(NC(=O)c2ccco2)c1`, the GI50 was 1.74 µM and the TGI came to 3.99 µM.

As for `CN1CCN(CCCOc2ccc3ncnc(Nc4ccc(Oc5cccc(C(F)(F)F)c5)c(Cl)c4)c3c2)CC1`, the GI50 was 1.07 µM and the TGI amounted to 2.87 µM.

`COc1cc(N)ccc1Nc1c2ccccc2nc2ccccc12`: the GI50 is 11.8 µM and the TGI worked out at 28.8 µM.

For `CCC[C@H](Nc1nc(-c2ccc(NC(=O)NCC)c(OC)c2)ncc1C)c1cccnc1`, the GI50 is 0.0246 µM and the TGI came out at 0.0709 µM.

In the case of `COc1cc(C(=O)O)ccc1NC(=O)[C@@H]1N[C@@H](CC(C)(C)C)[C@](C#N)(c2ccc(Cl)cc2F)[C@H]1c1cccc(Cl)c1F`, the GI50 is 5.12 µM and the TGI is 16.2 µM.

For the compound `Cc1c(N(C(=O)c2cc(-c3cc(Cl)ccc3C(=O)N3Cc4ccccc4C[C@H]3CN3CCOCC3)n(C)c2C)c2ccc(O)cc2)cc(C#N)n1C`, the GI50 was 4.7 µM and the TGI was 25.2 µM.

As to `O=C1CN2CCC1C/C2=C\c1ccnc2c(Cl)cccc12` (configuration not stated), the GI50 is 14.8 µM and the TGI came to 57.9 µM.

Take `C[C@@H](Oc1cc(-c2cnn(C3CC4(CCNCC4)C3)c2)cnc1N)c1c(F)ccc(Cl)c1Cl`: the GI50 is 0.562 µM and the TGI turned out to be 2.12 µM.

In the case of `COc1ccc(C(=O)c2ccc(OC)cc2OC)cc1`, the GI50 was 1.21 µM and the TGI was determined as 3.89 µM.

Consider `C[C@]12CC[C@H]3[C@@H](CC=C4C[C@@H](O)CC[C@@]43C)[C@@H]1C/C(=C\c1cccc(OCCCn3ccnc3)c1)[C@@H]2O`, for which the GI50 is 7.43 µM and the TGI stood at 31.3 µM.

For the compound `Cc1c(N)nc([C@H](CC(N)=O)NC[C@H](N)C(N)=O)nc1C(=O)N[C@H](C(=O)N[C@H](C)[C@@H](O)[C@H](C)C(=O)N[C@H](C(=O)NCCc1nc(-c2nc(C(=O)NCCC[S+](C)C)cs2)cs1)[C@@H](C)O)C(OC1OC(CO)C(O)C(O)C1OC1OC(CO)C(O)C(OC(N)=O)C1O)c1cnc[nH]1` (some centres not stated), the GI50 was 2.48 µM and the TGI was 15.3 µM.

As to `CCN(CC)CCCN1C(=O)c2c(c(C)c3c(oc4cc(O)ccc43)c2C)C1=O`, the GI50 was 1.57 µM and the TGI stood at 3.13 µM.

In the case of `Cc1nn(-c2ccccc2)cc1/C=N/Nc1nc(Nc2ccccc2)nc(Nc2ccc(S(N)(=O)=O)cc2)n1`, the GI50 is 1.52 µM and the TGI was determined as 3.27 µM.

`CN1CCN(Cc2ccc(NC(=O)c3[nH]ncc3Nc3ccnc4ccsc34)cc2)CC1`: the GI50 was 2.12 µM and the TGI was 5.54 µM.

Regarding `C=C1C(=O)O[C@H]2[C@H]1CC/C(COC(=O)NCCc1c[nH]c3ccccc13)=C\CC[C@@]1(C)O[C@@H]21`, the GI50 is 1.38 µM and the TGI was found to be 4.32 µM.
